Experimental data: patent US20120128614A1, “SOLVENT, SOLUTION, CLEANING COMPOSITION AND METHODS” (SEGETIS, INC., priority 2009, published 2012)

Tests used:
[1] = Miscibility of alkyl ketal esters with water; type: physicochemical; conditions: for miscibility with water: miscibility assessed at 25° C. unless stated otherwise
From the text: The term “miscible” and its variations (“miscibility”, etc.) are used herein as a synonym for “soluble”, as that term is defined above. A material may be fully or partially miscible in another. As used herein, a material said to be “miscible” in another, without further qualification, is miscible with that other material in all proportions, i.e., mixtures that contain only the two components form clear homogenous solutions in all weight ratios from 99.9:0.1 to 0.1:99.9. A material is said to be “highly miscible” in another material if it is soluble in the other material to the extent of at least 20 parts in 80 parts of the other material, and preferably is soluble in that other material to the extent of at least 50 parts in 50 parts of the other material. A “highly miscible” material may be soluble in the other material to the extent of 99.9 parts to 0.1 part of that other material and all lower proportions. A material is said to be “sparingly miscible” in another (or has “low miscibility” in another material) if is immiscible (as defined below) therein or otherwise not soluble in that other material to the extent of 20 parts in 80 parts of the other material. A sparingly miscible material may be soluble in that other material to the extent of no more than 10 parts in 90 parts of that other material, and may be soluble in that other material to the extent of no more than 5 parts in 95 parts of the other material. A material is said to be “immiscible” in another if it is not soluble by itself in that material to the extent of at least 1 part per 99 parts of the other material. Unless stated otherwise, miscibility is assessed at 25° C.

[2] = Castor oil solubilization into water by cosolvent; conditions: about 25° C.
Protocol: Mixtures of water and castor oil ChemistryStore.com; Cayce, S.C.) are prepared at 10/90, 25/75, 50/50, 75/25 and 90/10 volume ratios. […] To assess the ability of Et-LGK to solubilize castor oil into water, Et-LGK is added to each of these mixtures with vigorous stirring in a 20 mL scintillation vial at about 25° C. until a clear solution is obtained.

[3] = 2,2,4-Trimethyl-1,3-pentanediol (2-methylpropanoate) (Texanol) solubilization into water by cosolvent; conditions: about 25° C.
Protocol: To assess the ability of Et-LGK to solubilize Texanol into water, Et-LGK is added to each of these mixtures with vigorous stirring in a 20 mL scintillation vial at about 25° C. until a clear solution is obtained.
The concentrations of these comparative solvents (in volume %) needed in each case to form a clear solution is reported in Table 6 as Comparative Samples G, H and I, respectively.

[4] = Soya methyl esters solubilization into water by cosolvent; conditions: about 25° C.
Protocol: Mixtures of water and soya methyl esters (Stepan Chemical, Northfield, Ill.) are prepared at 10/90, 25/75, 50/50, 75/25 and 90/10 volume ratios.

[5] = Isobutyl isobutyrate (IBIB) solubilization into water by cosolvent; conditions: about 25° C.
Protocol: To assess the ability of Et-LGK to solubilize IBIB into water, Et-LGK is added to each of these mixtures with vigorous stirring in a 20 mL scintillation vial at about 25° C. until a clear solution is obtained.

[6] = Et-LPK solubilization in Et-LGK/water mixtures (visual miscibility); type: physicochemical
Protocol: Several three-component mixtures of Et-LGK, water and Et-LPK are prepared by mixing the materials the above materials at room temperature in a 20 ml scintillation vial with shaking. The mixtures prepared are analyzed visually for miscibility. Clear mixture are considered to be “miscible”, and mixtures, which are cloudy or form two or more distinct phases are considered to be “immiscible” on this test.

[7] = Miscibility of alkyl ketal esters with organic compounds; type: physicochemical; conditions: methanol, ethanol, tetrahydrofuran, acetone, ethyl acetate, methylene chloride, toluene, cyclohexane, acetic acid, poly(propylene glycol), mineral, castor, canola, corn, sunflower oil
From the text: The term “miscible” and its variations (“miscibility”, etc.) are used herein as a synonym for “soluble”, as that term is defined above. A material may be fully or partially miscible in another. As used herein, a material said to be “miscible” in another, without further qualification, is miscible with that other material in all proportions, i.e., mixtures that contain only the two components form clear homogenous solutions in all weight ratios from 99.9:0.1 to 0.1:99.9. A material is said to be “highly miscible” in another material if it is soluble in the other material to the extent of at least 20 parts in 80 parts of the other material, and preferably is soluble in that other material to the extent of at least 50 parts in 50 parts of the other material. A “highly miscible” material may be soluble in the other material to the extent of 99.9 parts to 0.1 part of that other material and all lower proportions. A material is said to be “sparingly miscible” in another (or has “low miscibility” in another material) if is immiscible (as defined below) therein or otherwise not soluble in that other material to the extent of 20 parts in 80 parts of the other material. […] Unless stated otherwise, miscibility is assessed at 25° C.

[8] = Bleach stability evaluation with Et-LPK (GC-FID purity); type: physicochemical; conditions: 8 ml Et-LPK stirred overnight with 2 ml 6% sodium hypochlorite in water; organic phase analysed
Protocol: The purity of an Et-LPK sample is measured by GC-FID (Model No. 7890A Gas Chromatograph w/ Flame Ionization Detector; Agilent Technologies, Santa Clara, Calif.). In a 20 ml vial (borosilicate scintillation; VWR International, West Chester, Pa.), 2 ml of a 6% sodium hypochlorite (bleach; Clorox Co., Oakland, Calif.) in water is mixed with 8 ml of Et-LPK to form a mixture. The mixture is shaken vigorously to produce a nearly clear solution. The mixture is further stirred overnight on a magnetic stir plate with a magnetic stir bar. Upon standing, the mixture separates into two phases—an upper organic phase and a bottom aqueous phase. A sample of the organic phase is analyzed by GC-FID to determine the purity of the Et-LPK after mixing.

[9] = Bleach and peroxide stability evaluations with Et-LGK (GC/FID); type: physicochemical; conditions: after storing for 96 hours
Protocol: Examples 2-3 and a control (non-bleach) formulation are prepared by combining the ingredients indicated in Table 1 in a 20 ml borosilicate glass scintillation vial, followed by shaking vigorously to form a clear, colorless solution. All formulations are clear, colorless homogenous solutions after standing for three days at room temperature.
After storing for 96 hours, GC/FID analysis is performed to assess the stability of Examples 2 and 3 and Comparative Sample A. Three analyses are performed with each test sample. […] For Example 1, the Et-LGK concentration is about 9.4%, indicating a slight degradation of the material in the presence of the chlorine bleach.

COC(=O)CCC1(C)OCC(CO)O1 (centres unmarked) [Me-LGK]
miscibility with water [1]: miscible with water in all proportions

COC(=O)CC1(C)OCC(CO)O1 (centres unmarked) [Me-AcAcGK]
miscibility with water [1]: miscible with water in all proportions

COC(C)COC(C)CO (centres unmarked) [DPGMME, dipropylene glycol monomethyl ether]
Required amount of cosolvent to obtain clear solution ([2]; 10/90 Water/castor oil ratio by volume): 55.9 vol.-% | Required amount of cosolvent to obtain clear solution ([2]; 25/75 Water/castor oil ratio by volume): 65.4 vol.-% | Required amount of cosolvent to obtain clear solution ([2]; 50/50 Water/castor oil ratio by volume): 73.5 vol.-% | Required amount of cosolvent to obtain clear solution ([2]; 75/25 Water/castor oil ratio by volume): 78.9 vol.-% | Required amount of cosolvent to obtain clear solution ([2]; 90/10 Water/castor oil ratio by volume): 80.6 vol.-% | Required amount of cosolvent to obtain clear solution ([3]; 10/90 Water/Texanol ratio by volume): 44.4 vol.-% | Required amount of cosolvent to obtain clear solution ([3]; 25/75 Water/Texanol ratio by volume): 50.9 vol.-% | Required amount of cosolvent to obtain clear solution ([3]; 50/50 Water/Texanol ratio by volume): 55.2 vol.-% | Required amount of cosolvent to obtain clear solution ([3]; 75/25 Water/Texanol ratio by volume): 54.1 vol.-% | Required amount of cosolvent to obtain clear solution ([3]; 90/10 Water/Texanol ratio by volume): 51.6 vol.-% | Required amount of cosolvent to obtain clear solution ([4]; 10/90 Water/soya methyl ester ratio by volume): 48.3 vol.-% | Required amount of cosolvent to obtain clear solution ([4]; 25/75 Water/soya methyl ester ratio by volume): 62.6 vol.-% | Required amount of cosolvent to obtain clear solution ([4]; 50/50 Water/soya methyl ester ratio by volume): 73.6 vol.-% | Required amount of cosolvent to obtain clear solution ([4]; 75/25 Water/soya methyl ester ratio by volume): 78.3 vol.-% | Required amount of cosolvent to obtain clear solution ([4]; 90/10 Water/soya methyl ester ratio by volume): 78.3 vol.-% | Required amount of cosolvent to obtain clear solution ([5]; 10/90 Water/IBIB ratio by volume): 54.5 vol. % | Required amount of cosolvent to obtain clear solution ([5]; 25/75 Water/IBIB ratio by volume): 53.3 vol. % | Required amount of cosolvent to obtain clear solution ([5]; 50/50 Water/IBIB ratio by volume): 58.9 vol. % | Required amount of cosolvent to obtain clear solution ([5]; 75/25 Water/IBIB ratio by volume): 60.0 vol. % | Required amount of cosolvent to obtain clear solution ([5]; 90/10 Water/IBIB ratio by volume): 62.5 vol. %

CCOC(=O)CCC1(C)OCCO1 [Et-LEK]
miscible in water to the extent of [1]: about 5 parts per 95 parts of water

CCOC(=O)CCC1(C)OCC(C)O1 (centres unmarked) [Et-LPK]
Et-LPK concentration obtained in a miscible mixture with water and Et-LGK ([6]; Mixture 18): ~55 wt. % | miscibility of Et-LPK in water ([6]; at the 10.9% level, no Et-LGK): immiscible | dissolves or is miscible with organic compounds to the extent of [7]: at least 20 parts of the organic compound in 80 parts of ethyl-LPK | change in purity of Et-LPK (GC-FID) versus initial purity [8]: little to no change in the purity | miscible in water to the extent of [1]: about 2.5 parts in 97.5 parts of water

CCOC(=O)CCC1(C)OCC(CO)O1 (centres unmarked) [Et-LGK]
miscibility with water [1]: miscible in water in all proportions | Et-LGK concentration (GC/FID) ([9]; control (non-bleach) formulation): about 10% | Et-LGK concentration (GC/FID) ([9]; formulation with 6% sodium hypochlorite solution (Table 1 'Example 1')): about 9.4% | Et-LGK concentration (GC/FID) ([9]; formulation with hydrogen peroxide (Table 1 'Example 2')): the same as the control

CCOC(=O)CC1(C)OCC(CO)O1 (centres unmarked) [Et-AcAcGK]
miscibility with water [1]: miscible with water in all proportions

CCCCOC(=O)CCC1(C)OCC(CO)O1 (centres unmarked) [n-butyl-LGK]
miscible with water to the extent of [1]: about 1 part per 99 parts water

CCCOC(=O)CCC1(C)OCC(CO)O1 (centres unmarked) [n-propyl-LGK]
miscible with water to the extent of [1]: about 1 part per 99 parts water
